Test results from PubChem BioAssay AID192 (DTP/NCI, 2004).
Inconclusive results and toxic doses are left out.

System: BDF1 mice, B16 melanoma ip, median survival T/C
Experiment: NCI In Vivo Anticancer Drug Screen. Data for tumor model B16 Melanoma (intraperitoneal) in B6D2F1 (BDF1) mice
Details: endpoint: median survival time, higher = longer survival
Procedure, shortened: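 Read-out: survival or tumor size, given as treated/control ratio. Controls received vehicle only; animals bore transplantable tumors.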

[1] = dose: 50.0 mg/kg/injection, schedule: Q01DX009 (ip), vehicle: saline
[2] = dose: 100.0 mg/kg/injection, schedule: Q01DX009 (ip), vehicle: saline
[3] = dose: 200.0 mg/kg/injection, schedule: Q01DX009 (ip), vehicle: saline
[4] = dose: 50.0 mg/kg/injection, schedule: Q01DX009 (ip), vehicle: Klucel (hydroxypropylcellulose) (HPC)
[5] = dose: 100.0 mg/kg/injection, schedule: Q01DX009 (ip), vehicle: Klucel (hydroxypropylcellulose) (HPC)
[6] = dose: 400.0 mg/kg/injection, schedule: Q01DX009 (ip), vehicle: Klucel (hydroxypropylcellulose) (HPC)
[7] = dose: 12.5 mg/kg/injection, schedule: Q01DX009 (ip), vehicle: saline
[8] = dose: 200.0 mg/kg/injection, schedule: Q01DX009 (ip), vehicle: Klucel (hydroxypropylcellulose) (HPC)
[9] = dose: 50.0 mg/kg/injection, schedule: Q01DX009 (ip), vehicle: saline with Tween-80
[10] = dose: 100.0 mg/kg/injection, schedule: Q01DX009 (ip), vehicle: saline with Tween-80
[11] = dose: 200.0 mg/kg/injection, schedule: Q01DX009 (ip), vehicle: saline with Tween-80
[12] = dose: 400.0 mg/kg/injection, schedule: Q01DX009 (ip), vehicle: saline with Tween-80

Which T/C (dose: 6.0 mg/kg/injection, schedule: Q01DX009 (ip), vehicle: saline) does the source give for `NCCCNCCCCNC(=O)C(O)NC(=O)CCCCCCN=C(N)N` (stereo not given) here?
The T/C was 96 % of control.

And the T/C (dose: 12.0 mg/kg/injection, schedule: Q01DX009 (ip), vehicle: saline)?
The T/C was 96 % of control.

And the T/C (dose: 24.0 mg/kg/injection, schedule: Q01DX009 (ip), vehicle: saline)?
Its T/C is 93 % of control.

And the T/C (dose: 48.0 mg/kg/injection, schedule: Q01DX009 (ip), vehicle: saline)?
Its T/C is 100 % of control.

Which T/C (dose: 100.0 mg/kg/injection, schedule: Q04DX003 (ip), vehicle: saline) does the source give for `CC(=N)/C(C(=O)NC1CCCCC1)=C(/C)O` here?
Its T/C is 100 % of control.

What about the T/C (dose: 200.0 mg/kg/injection, schedule: Q04DX003 (ip), vehicle: saline) of the same compound?
The T/C was 97 % of control.

And the T/C (dose: 400.0 mg/kg/injection, schedule: Q04DX003 (ip), vehicle: saline)?
Its T/C is 97 % of control.

What does the source list for `CNCCN(C)CCN(C)Cc1ccc(OC)cc1`?
T/C [1]: 103 % of control; T/C [2]: 106 % of control; T/C [3]: 106 % of control

`COC1CC(C)C(OC)C2=CC(=O)C=C(NC(=O)/C(C)=C/C=C\C(C)C(OC(N)=O)/C(C)=C\C(C)C1OC)C2=O` (stereo not given) was tested. Which T/C (dose: 5.0 mg/kg/injection, schedule: Q01DX009 (ip), vehicle: saline + alcohol) did it give?
The T/C was 152 % of control.

And the T/C (dose: 10.0 mg/kg/injection, schedule: Q01DX009 (ip), vehicle: saline + alcohol)?
The T/C was 172 % of control.

With `c1ccc(N/N=C2/c3ccccc3CC23OC3c2ccccc2)cc1` (stereo not given) as the compound, how does the T/C [4] read?
The T/C was 87 % of control.

What about the T/C [5] of the same compound?
The T/C was 96 % of control.

And the T/C [6]?
The T/C was 89 % of control.

Which T/C [7] does the source give for `C=CCc1cn(C2CC(O)C(CO)O2)c(=O)[nH]c1=O` (stereo not given) here?
Its T/C is 104 % of control.

And the T/C (dose: 25.0 mg/kg/injection, schedule: Q01DX009 (ip), vehicle: saline)?
Its T/C is 105 % of control.

What about the T/C [1] of the same compound?
The T/C was 104 % of control.

What about the T/C [2] of the same compound?
Its T/C is 105 % of control.

What about the T/C [3] of the same compound?
Its T/C is 105 % of control.

What about the T/C (dose: 400.0 mg/kg/injection, schedule: Q01DX009 (ip), vehicle: saline) of the same compound?
The T/C was 107 % of control.

What does the source list for `CCNCCCOCC`?
T/C (dose: 12.5 mg/kg/injection, schedule: Q04DX003 (ip), vehicle: saline): 104 % of control; T/C (dose: 25.0 mg/kg/injection, schedule: Q04DX003 (ip), vehicle: saline): 102 % of control; T/C (dose: 50.0 mg/kg/injection, schedule: Q04DX003 (ip), vehicle: saline): 102 % of control

How did the T/C [5] turn out when `O=C(Nc1ccccc1)OCC(Cl)(Cl)Cl` was run?
The T/C was 114 % of control.

And the T/C [8]?
Its T/C is 108 % of control.

And the T/C [6]?
The T/C was 102 % of control.

Which results are given for `CC(C)c1ccc(C(O)C2CC2)cc1` (stereo not given)?
T/C [9]: 110 % of control; T/C [10]: 102 % of control

Which results are given for `CC(=O)[O][Pb]([CH2]CC(C)C)([CH2]CC(C)C)[CH2]CC(C)C`?
T/C (dose: 0.75 mg/kg/injection, schedule: Q01DX009 (ip), vehicle: Klucel (hydroxypropylcellulose) (HPC)): 100 % of control; T/C (dose: 1.5 mg/kg/injection, schedule: Q01DX009 (ip), vehicle: Klucel (hydroxypropylcellulose) (HPC)): 86 % of control

Which results are given for `Cc1ccc(Oc2c3c(nc4ccccc24)CCCC3)cc1`?
T/C [10]: 110 % of control; T/C [11]: 107 % of control; T/C [12]: 92 % of control

`S=c1nc[nH]c2nc[nH]c12` was tested. Which T/C (dose: 2.5 mg/kg/injection, schedule: Q01DX009 (ip), vehicle: other) did it give?
Its T/C is 120 % of control.

What about the T/C (dose: 2.5 mg/kg/injection, schedule: Q01DX009 (ip), vehicle: saline) of the same compound?
The T/C was 107 % of control.

What about the T/C (dose: 5.0 mg/kg/injection, schedule: Q01DX009 (ip), vehicle: other) of the same compound?
Its T/C is 112 % of control.

And the T/C (dose: 5.0 mg/kg/injection, schedule: Q01DX009 (ip), vehicle: saline)?
Its T/C is 110 % of control.

What about the T/C (dose: 7.5 mg/kg/injection, schedule: Q01DX009 (ip), vehicle: Klucel (hydroxypropylcellulose) (HPC)) of the same compound?
Its T/C is 93 % of control.

What about the T/C (dose: 9.38 mg/kg/injection, schedule: Q01DX009 (ip), vehicle: alkali diluted with water) of the same compound?
The T/C was 94 % of control.

What about the T/C (dose: 10.0 mg/kg/injection, schedule: Q01DX009 (ip), vehicle: saline) of the same compound?
Its T/C is 110 % of control.

And the T/C (dose: 11.3 mg/kg/injection, schedule: Q01DX009 (ip), vehicle: other)?
The T/C was 90 % of control.

What about the T/C (dose: 12.5 mg/kg/injection, schedule: Q01DX009 (ip), vehicle: Klucel (hydroxypropylcellulose) (HPC)) of the same compound?
Its T/C is 110 % of control.

What about the T/C (dose: 18.8 mg/kg/injection, schedule: Q01DX009 (ip), vehicle: alkali diluted with water) of the same compound?
Its T/C is 100 % of control.

And the T/C (dose: 20.0 mg/kg/injection, schedule: Q01DX009 (ip), vehicle: saline)?
Its T/C is 160 % of control.

What about the T/C (dose: 22.5 mg/kg/injection, schedule: Q01DX009 (ip), vehicle: other) of the same compound?
The T/C was 95 % of control.

What about the T/C (dose: 25.0 mg/kg/injection, schedule: Q01DX009 (ip), vehicle: acid diluted with saline) of the same compound?
The T/C was 87 % of control.

And the T/C (dose: 30.0 mg/kg/injection, schedule: Q01DX009 (ip), vehicle: saline)?
Its T/C is 105 % of control.

And the T/C (dose: 37.5 mg/kg/injection, schedule: Q01DX009 (ip), vehicle: alkali diluted with water)?
Its T/C is 88 % of control.

And the T/C (dose: 40.0 mg/kg/injection, schedule: Q01DX009 (ip), vehicle: saline)?
Its T/C is 110 % of control.

What about the T/C (dose: 75.0 mg/kg/injection, schedule: Q01DX009 (ip), vehicle: alkali diluted with water) of the same compound?
Its T/C is 84 % of control.

And the T/C (dose: 78.0 mg/kg/injection, schedule: Q04DX003 (ip), vehicle: alkali diluted with water)?
Its T/C is 96 % of control.

What about the T/C (dose: 120.0 mg/kg/injection, schedule: Q04DX003 (ip), vehicle: alkali diluted with water) of the same compound?
The T/C was 98 % of control.

What about the T/C (dose: 150.0 mg/kg/injection, schedule: Q01DX009 (ip), vehicle: alkali diluted with water) of the same compound?
The T/C was 46 % of control.

What about the T/C (dose: 200.0 mg/kg/injection, schedule: Q04DX003 (ip), vehicle: alkali diluted with water) of the same compound?
The T/C was 84 % of control.

And the T/C (dose: 333.0 mg/kg/injection, schedule: Q04DX003 (ip), vehicle: alkali diluted with water)?
The T/C was 81 % of control.

With `Cc1cc(C)c(NC(=O)NC(C)C)c(C)c1` as the compound, how does the T/C (dose: 100.0 mg/kg/injection, schedule: Q04DX003 (ip), vehicle: Klucel (hydroxypropylcellulose) (HPC)) read?
Its T/C is 100 % of control.

And the T/C (dose: 200.0 mg/kg/injection, schedule: Q04DX003 (ip), vehicle: Klucel (hydroxypropylcellulose) (HPC))?
Its T/C is 90 % of control.

What about the T/C (dose: 400.0 mg/kg/injection, schedule: Q04DX003 (ip), vehicle: Klucel (hydroxypropylcellulose) (HPC)) of the same compound?
Its T/C is 87 % of control.

What does the source list for `CCOC(=O)Oc1c(OC)cc(C(=O)O[C@@H]2C[C@@H]3CN4CCc5c([nH]c6cc(OC)ccc56)[C@H]4C[C@@H]3[C@H](C(=O)OC)[C@H]2OC)cc1OC`?
T/C (dose: 0.09 mg/kg/injection, schedule: Q01DX009 (ip), vehicle: saline): 98 % of control; T/C (dose: 0.19 mg/kg/injection, schedule: Q01DX009 (ip), vehicle: saline): 93 % of control; T/C (dose: 0.39 mg/kg/injection, schedule: Q01DX009 (ip), vehicle: saline): 124 % of control; T/C (dose: 0.78 mg/kg/injection, schedule: Q01DX009 (ip), vehicle: saline): 101 % of control; T/C (dose: 1.56 mg/kg/injection, schedule: Q01DX009 (ip), vehicle: saline): 112 % of control; T/C (dose: 6.25 mg/kg/injection, schedule: Q01DX009 (ip), vehicle: Klucel (hydroxypropylcellulose) (HPC)): 87 % of control

`[Cl][Pt+2][Cl].[NH-]CCO.[NH-]CCO` was tested. Which T/C (dose: 3.13 mg/kg/injection, schedule: Q01DX009 (ip), vehicle: saline) did it give?
The T/C was 100 % of control.

What about the T/C (dose: 6.25 mg/kg/injection, schedule: Q01DX009 (ip), vehicle: saline) of the same compound?
Its T/C is 104 % of control.

What about the T/C [7] of the same compound?
Its T/C is 104 % of control.

Which results are given for `Cn1c2c(sc1=O)CCC2`?
T/C [4]: 113 % of control; T/C [5]: 100 % of control; T/C [8]: 97 % of control

How did the T/C [10] turn out when `Cc1cccc(C)c1NC(=O)c1ccccc1C(=O)O` was run?
The T/C was 97 % of control.

What about the T/C [11] of the same compound?
The T/C was 92 % of control.

What about the T/C [12] of the same compound?
Its T/C is 95 % of control.

How did the T/C (dose: 6.25 mg/kg/injection, schedule: Q01DX009 (ip), vehicle: saline with Tween-80) turn out when `CCCCn1cnc2c(=S)nc[nH]c21` was run?
The T/C was 93 % of control.

What about the T/C (dose: 12.5 mg/kg/injection, schedule: Q01DX009 (ip), vehicle: saline with Tween-80) of the same compound?
The T/C was 89 % of control.

What about the T/C (dose: 25.0 mg/kg/injection, schedule: Q01DX009 (ip), vehicle: saline with Tween-80) of the same compound?
Its T/C is 95 % of control.

And the T/C [9]?
Its T/C is 97 % of control.

With `CC(=O)OC1C2(CC3N4C(=O)C5(CO)SSC4(CC31O)C(=O)N5C)OC(C)C(C)(C)C2=O` (stereo not given) as the compound, how does the T/C (dose: 0.08 mg/kg/injection, schedule: Q01DX009 (ip), vehicle: saline with Tween-80) read?
The T/C was 96 % of control.

What about the T/C (dose: 0.16 mg/kg/injection, schedule: Q01DX009 (ip), vehicle: saline with Tween-80) of the same compound?
Its T/C is 101 % of control.

And the T/C (dose: 0.3 mg/kg/injection, schedule: Q01DX009 (ip), vehicle: saline with Tween-80)?
The T/C was 88 % of control.

And the T/C (dose: 0.6 mg/kg/injection, schedule: Q01DX009 (ip), vehicle: saline with Tween-80)?
Its T/C is 98 % of control.

How did the T/C [10] turn out when `CCOC(CCC#N)c1ccc(Cl)cc1` (stereo not given) was run?
The T/C was 98 % of control.

And the T/C [11]?
The T/C was 96 % of control.

And the T/C [12]?
Its T/C is 97 % of control.
